Assays:
Assay in all cases: relative viability (nuclei count vs DMSO), 5 days (fraction); higher = more cells survive
NCI-H1563 = tested on: NCI-H1563
Summary of the method: (§1)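 One day after seeding in 1536-well plates, lung cancer cell lines were dosed by pin tool. Dosing was either single-drug or a fixed anchor-drug dose plus five library-drug doses (not always all listed) in √10 steps. After 5 days, nuclei were stained in one fix-and-stain step and counted on 4× images, and relative viability is the nuclei count of treated wells over that of vehicle wells, given as the median of duplicate plates.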

COR-L23 = tested on: COR-L23
Summary of the method: as §1

NCI-H441 = tested on: NCI-H441
Summary of the method: as §1

201T = tested on: 201T
Summary of the method: as §1

HCC-15 = tested on: HCC-15
Summary of the method: as §1

NCI-H647 = tested on: NCI-H647
Summary of the method: as §1

NCI-H2023 = tested on: NCI-H2023
Summary of the method: as §1

EPLC-272H = tested on: EPLC-272H
Summary of the method: as §1

NCI-H2405 = tested on: NCI-H2405
Summary of the method: as §1

NCI-H1793 = tested on: NCI-H1793
Summary of the method: as §1

NCI-H3122 = tested on: NCI-H3122
Summary of the method: as §1

NCI-H2170 = tested on: NCI-H2170
Summary of the method: as §1

LOU-NH91 = tested on: LOU-NH91
Summary of the method: as §1

NCI-H322M = tested on: NCI-H322M
Summary of the method: as §1

PC-14 = tested on: PC-14
Summary of the method: as §1

NCI-H2347 = tested on: NCI-H2347
Summary of the method: as §1

NCI-H520 = tested on: NCI-H520
Summary of the method: as §1

UMC-11 = tested on: UMC-11
Summary of the method: as §1

H3255 = tested on: H3255
Summary of the method: as §1

NCI-H1734 = tested on: NCI-H1734
Summary of the method: as §1

O=c1cc(-c2cccc3c2Sc2ccccc2S3)oc(N2CCOCC2)c1 + Cc1nc(NC(=O)N2CCC[C@H]2C(N)=O)sc1-c1ccnc(C(C)(C)C(F)(F)F)c1 [Alpelisib] (partner 2 µM)
relative viability (NCI-H1563; first compound 0.08 µM): 0.917 | relative viability (NCI-H1563; first compound 0.253 µM): 1.04 | relative viability (NCI-H1563; first compound 0.8 µM): 0.853 | relative viability (NCI-H1563; first compound 2.53 µM): 0.848 | relative viability (NCI-H1563; first compound 8 µM): 0.822 | relative viability (COR-L23; first compound 0.08 µM): 0.867 | relative viability (COR-L23; first compound 0.253 µM): 1.15 | relative viability (COR-L23; first compound 0.8 µM): 0.887 | relative viability (COR-L23; first compound 2.53 µM): 0.786 | relative viability (COR-L23; first compound 8 µM): 0.984 | relative viability (NCI-H441; first compound 0.08 µM): 0.736 | relative viability (NCI-H441; first compound 0.253 µM): 0.933 | relative viability (NCI-H441; first compound 0.8 µM): 1.2 | relative viability (NCI-H441; first compound 2.53 µM): 0.551 | relative viability (NCI-H441; first compound 8 µM): 0.691 | relative viability (201T; first compound 0.08 µM): 0.98 | relative viability (201T; first compound 0.253 µM): 1.04 | relative viability (201T; first compound 0.8 µM): 1.02 | relative viability (201T; first compound 2.53 µM): 0.953 | relative viability (201T; first compound 8 µM): 0.913 | relative viability (HCC-15; first compound 0.08 µM): 0.896 | relative viability (HCC-15; first compound 0.253 µM): 1.05 | relative viability (HCC-15; first compound 0.8 µM): 0.89 | relative viability (HCC-15; first compound 2.53 µM): 0.797 | relative viability (HCC-15; first compound 8 µM): 0.922 | relative viability (NCI-H647; first compound 0.08 µM): 1.4 | relative viability (NCI-H647; first compound 0.253 µM): 1.47 | relative viability (NCI-H647; first compound 0.8 µM): 1.31 | relative viability (NCI-H647; first compound 2.53 µM): 0.869 | relative viability (NCI-H647; first compound 8 µM): 0.977 | relative viability (NCI-H2023; first compound 0.08 µM): 0.593 | relative viability (NCI-H2023; first compound 0.253 µM): 0.82 | relative viability (NCI-H2023; first compound 0.8 µM): 0.59 | relative viability (NCI-H2023; first compound 2.53 µM): 0.57 | relative viability (NCI-H2023; first compound 8 µM): 0.49 | relative viability (EPLC-272H; first compound 0.08 µM): 0.966 | relative viability (EPLC-272H; first compound 0.253 µM): 1.11 | relative viability (EPLC-272H; first compound 0.8 µM): 0.987 | relative viability (EPLC-272H; first compound 2.53 µM): 0.86 | relative viability (EPLC-272H; first compound 8 µM): 0.929 | relative viability (NCI-H2405; first compound 0.08 µM): 0.749 | relative viability (NCI-H2405; first compound 0.253 µM): 0.777 | relative viability (NCI-H2405; first compound 0.8 µM): 0.792 | relative viability (NCI-H2405; first compound 2.53 µM): 0.73 | relative viability (NCI-H2405; first compound 8 µM): 0.614 | relative viability (NCI-H1793; first compound 0.08 µM): 0.498 | relative viability (NCI-H1793; first compound 0.253 µM): 0.782 | relative viability (NCI-H1793; first compound 0.8 µM): 0.692 | relative viability (NCI-H1793; first compound 2.53 µM): 0.55 | relative viability (NCI-H1793; first compound 8 µM): 0.689 | relative viability (NCI-H3122; first compound 0.08 µM): 0.731 | relative viability (NCI-H3122; first compound 0.253 µM): 0.902 | relative viability (NCI-H3122; first compound 0.8 µM): 0.796 | relative viability (NCI-H3122; first compound 2.53 µM): 0.746 | relative viability (NCI-H3122; first compound 8 µM): 0.881 | relative viability (NCI-H2170; first compound 0.08 µM): 0.791 | relative viability (NCI-H2170; first compound 0.253 µM): 0.835 | relative viability (NCI-H2170; first compound 0.8 µM): 0.933 | relative viability (NCI-H2170; first compound 2.53 µM): 0.747 | relative viability (NCI-H2170; first compound 8 µM): 0.841 | relative viability (LOU-NH91; first compound 0.08 µM): 0.724 | relative viability (LOU-NH91; first compound 0.253 µM): 0.764 | relative viability (LOU-NH91; first compound 0.8 µM): 0.632 | relative viability (LOU-NH91; first compound 2.53 µM): 0.593 | relative viability (LOU-NH91; first compound 8 µM): 0.713 | relative viability (NCI-H322M; first compound 0.08 µM): 0.784 | relative viability (NCI-H322M; first compound 0.253 µM): 0.79 | relative viability (NCI-H322M; first compound 0.8 µM): 0.79 | relative viability (NCI-H322M; first compound 2.53 µM): 0.964 | relative viability (NCI-H322M; first compound 8 µM): 0.838 | relative viability (PC-14; first compound 0.08 µM): 0.936 | relative viability (PC-14; first compound 0.253 µM): 1.17 | relative viability (PC-14; first compound 0.8 µM): 1.11 | relative viability (PC-14; first compound 2.53 µM): 0.821 | relative viability (PC-14; first compound 8 µM): 1.05 | relative viability (NCI-H2347; first compound 0.08 µM): 1.03 | relative viability (NCI-H2347; first compound 0.253 µM): 1.14 | relative viability (NCI-H2347; first compound 0.8 µM): 1.1 | relative viability (NCI-H2347; first compound 2.53 µM): 1.11 | relative viability (NCI-H2347; first compound 8 µM): 1.16 | relative viability (NCI-H520; first compound 0.08 µM): 0.874 | relative viability (NCI-H520; first compound 0.253 µM): 0.979 | relative viability (NCI-H520; first compound 0.8 µM): 1.09 | relative viability (NCI-H520; first compound 2.53 µM): 1.03 | relative viability (NCI-H520; first compound 8 µM): 0.971 | relative viability (UMC-11; first compound 0.08 µM): 0.965 | relative viability (UMC-11; first compound 0.253 µM): 1.35 | relative viability (UMC-11; first compound 0.8 µM): 1.17 | relative viability (UMC-11; first compound 2.53 µM): 0.98 | relative viability (UMC-11; first compound 8 µM): 1.42 | relative viability (H3255; first compound 0.08 µM): 0.631 | relative viability (H3255; first compound 0.253 µM): 0.755 | relative viability (H3255; first compound 0.8 µM): 0.637 | relative viability (H3255; first compound 2.53 µM): 0.653 | relative viability (H3255; first compound 8 µM): 0.797 | relative viability (NCI-H1734; first compound 0.08 µM): 0.595 | relative viability (NCI-H1734; first compound 0.253 µM): 0.841 | relative viability (NCI-H1734; first compound 0.8 µM): 0.729 | relative viability (NCI-H1734; first compound 2.53 µM): 0.662 | relative viability (NCI-H1734; first compound 8 µM): 0.706

Source: the supplement of paper PMC10307832
